One data set concerns K562 cells. The experiment in a line: MTT cell viability (antiproliferative) assay in K562 cells. The format is cell-based, human. The following applies: for cytotoxicity / antiproliferative activity to K562 cells (in words): 0.0 to 30.0 µM, 24 h; for IC50: Homo sapiens. As to the method: The antiproliferative activities of the synthesized molecules were initially evaluated in human chronic […] leukemia cells K562. The effect of the six derivatives on the viability of K562 was assessed by an MTT assay as described in the methods. In all MTT tests performed, the known antiproliferative agent etoposide was used as a positive control to validate the accuracy of the assay.
Figure 2 The isoindigo compounds 3b and 3d inhibit the growth of K562 cells in a dose- and time-dependent manner. (A) K562 cells were treated with varying concentrations of compounds 3a to 3f (0.0 to 30.0 µM) for 24 h and the antiproliferative activity was analyzed by MTT assay as described in the methods. (B) K562 cells were incubated with 12.0 µM of either compound 3b or 3d for different periods of time (0 to 72 h) and cell viability was assessed by the MTT assay. The controls (in the presence or absence of the solvent vehicle DMSO) represent cells incubated under similar conditions in the absence of the test compound. The percentage of cell viability in each sample was expressed relative to untreated control, which was considered as a 100%. K562 cells were also treated with 4.0, 8.0 and 12.0 µM etoposide under similar conditions as positive controls. The results shown represent the mean ± SD of three independent trials.
Figure 3 The IC50 values of compounds 3b and 3d determined in K562 cells at different time points. K562 cells were treated with varying concentrations of compounds 3b or 3d (0.0 to 40.0 µM) for different periods of time (24, 48 and 72 h) and their antiproliferative activity was analyzed by MTT viability assay. The sigmoidal curves shown were obtained by plotting the percentages of viability (mean ± SD of three independent experiments, three replicates for each concentration in every experiment were used) versus logarithmic molar concentrations of the test compounds at the three different time points, and the IC50 value was determined using a non-linear regression analysis of GraphPad Prism 6 software.
The human chronic myelogenous leukemia K562 (ATCC® CCL-243^TM) and human acute monocytic leukemia THP-1 (ATCC® TIB-202^TM) suspension cells were maintained in RPMI-1640, while adherent HepG2 (human hepatocellular carcinoma, ATCC® HB-8065^TM), MCF7 (human breast adenocarcinoma, ATCC® HTB-22^TM) were cultured in DMEM medium. Adherent Caco-2 (human colorectal adenocarcinoma, ATCC® HTB-37^TM), HEK-293 (human embryonic epithelial cells, ATCC® CRL-1573^TM) and L-929 (mouse subcutaneous connective tissue fibroblast, ATCC® CCL-1^TM) cells were cultured in MEM medium. The media were supplemented with 10% (v/v) heat inactivated FBS, penicillin G (100 U/mL) and streptomycin ([…]), and cells were incubated at 37 °C in a 5% CO2 humidified incubator. The media were changed every 2–3 days and subcultured when the cell population density reached to 70%–80% confluence. Cells were seeded at an appropriate density according to each experimental design.
The antiproliferative activity of the synthesized compounds was assessed using the MTT cell viability assay. Briefly, 2 × 10^4 of the non-adherent K562 or THP-1 cells, in a 100 μL of RPMI-1640 medium, or […] of adherent HepG2, MCF-7, Caco-2, HEK-293 or L-929, in a same volume of the proper media, were seeded in each well of a 96 well-plate. After 24 h, the media was removed by aspiration and replaced by fresh media containing the test compound at varying concentrations (0.0 to 40.0 µM, for cancerous cells) or (0.0 to 80.0 µM, for noncancerous cells), and incubated for the desired time in a 5% CO2-cell culture incubator. Alternatively, cultured K562 cells were incubated with 12.0 µM of the test compound for different time-points (0, 2, 4, 8, 12, 24, 48 and 72 h) before analysis. […]

The next data set deals with THP-1 cells. The data set is described as follows: MTT cell viability (antiproliferative) assay in THP-1 cells. Format: cell-based. The following applies: Homo sapiens, 48 h incubation. The source says: (§1) In addition to the effect on K562 cells, we have also evaluated the potential antiproliferative activities of compounds 3b and 3d on different hematological and solid tumor cell lines. […] To further characterize the cytotoxicity of compounds 3b and 3d, we evaluated their effects on inducing apoptosis of the cultured K562 cells (Figure 5).
(§2) Figure 4 Compounds 3b and 3d inhibit the growth of various hematological and solid tumor cell lines but not noncancerous cells at low IC50 values. […]
(§3) The antiproliferative activity of the synthesized compounds was assessed using the MTT cell viability assay. […] Absorbance was measured within 60 min at 595 nm using an E Max Precision Microplate reader (Molecular Devices, Sunnyvale, CA, USA). Cell viability at a given concentration was determined from the following expression: Percentage Viability = (Atest compound − Ablank/Acontrol − Ablank) × 100 (1) where Atest compound = absorbance of wells with cells exposed to test compound in media; Acontrol = absorbance of wells with cells in media and Ablank = absorbance of wells with DMSO only, without cells. […]

In a further data set the test system is Caco-2 cells. The data set is described as follows: MTT cell viability (antiproliferative) assay in Caco-2 cells. The format is cell-based. The following applies: Homo sapiens, 48 h incubation.
Text: as §1, §2, §3

For the next data set, the system named is HEK-293 cells. The data set is described as follows: MTT cell viability assay in noncancerous HEK-293 cells. Format: cell-based. The following applies: Homo sapiens, HEK293, 48 h incubation.
Text: as §1, §2, §3
Background: Tetrazolium assays rely on reduction of a dye to a coloured formazan, in cell work by metabolically active cells.

The next data set deals with MCF-7 cells. The experiment in a line: MTT cell viability (antiproliferative) assay in MCF-7 cells. Format: cell-based. The following applies: Homo sapiens, MCF7, 48 h incubation.
Text: as §1, §2, §3

In a further data set the test system is HepG2 cells. The data set is described as follows: MTT cell viability (antiproliferative) assay in HepG2 cells. The format is cell-based. The following applies: Homo sapiens, 48 h incubation.
Text: as §1, §2, §3

The next data set has as its system L-929 cells. The data set is described as follows: MTT cell viability assay in noncancerous L-929 fibroblasts. The format is cell-based. The note with it: Mus musculus, L929, 48 h incubation.
Text: as §1, §2, §3

Details of data set [1]: method as in PMID 16330129. The note with it: cited from earlier work.

These results are taken from paper PMC6271423, “Synthesis and Biological Evaluation of New Pyridone-Annelated Isoindigos as Anti-Proliferative Agents” (Molecules, 2014).

One may read the melting point as the temperature, or range, at which the solid turns liquid. `CCn1cc(C(=O)O)c(=O)c2c3c(ccc21)NC(=O)/C3=C1/C(=O)Nc2ccccc21` [3a, (E)-6-Ethyl-2,9-dioxo-1-(2'-oxoindolin-3'-ylidene)-2,3,6,9-tetrahydro-1H-pyrrolo[3,2-f]quinoline-8-carboxylic acid] gave a melting point of more than 300 °C. Further, in the data set on K562 cells, the “cytotoxicity / antiproliferative activity to K562 cells (in words)” value is reported as “significantly inhibited their antiproliferative activities”.

As a reminder, the IC50 is the midpoint of a concentration-inhibition curve. A low value points to inhibition by little substance. In the case of `CCn1cc(C(=O)O)c(=O)c2c3c(ccc21)NC(=O)/C3=C1/C(=O)Nc2ccc(Cl)cc21` [3b, (E)-1-(5'-Chloro-2'-oxoindolin-3'-ylidene)-6-ethyl-2,3,6,9-tetrahydro-2,9-dioxo-1H-pyrrolo[3,2-f]quinoline-8-carboxylic acid], the 50% inhibitory concentration (IC50) in the data set on THP-1 cells turned out to be 8.21 ± 0.62 µM; with Caco-2 cells, 14.6 ± 1.32 µM; with HEK-293 cells, 30.7 ± 2.52 µM; with K562 cells (K562, 24 h incubation), 15.1 ± 1.27 µM; in the data set on K562 cells (K562, 48 h incubation), 6.6 ± 0.58 µM; in the data set on K562 cells (K562, 72 h incubation), 4.02 ± 0.52 µM. The 50% inhibitory concentration (IC50) with MCF-7 cells stood at 11.9 ± 0.67 µM; with HepG2 cells it was 8.97 ± 0.84 µM; with L-929 cells, 40.4 ± 3.15 µM. Also, in the data set with K562 cells, the “cytotoxicity / antiproliferative activity to K562 cells (in words)” value is recorded as “significant dose-dependent cytotoxicity”.

Take `CCn1cc(C(=O)O)c(=O)c2c3c(ccc21)NC(=O)/C3=C1/C(=O)Nc2cc(Cl)ccc21` [3c, (E)-1-(6'-Chloro-2'-oxoindolin-3'-ylidene)-6-ethyl-2,3,6,9-tetrahydro-2,9-dioxo-1H-pyrrolo[3,2-f]quinoline-8-carboxylic acid]: the melting point is more than 300 °C. The “cytotoxicity / antiproliferative activity to K562 cells (in words)” value with K562 cells is reported as “significantly abolished the cytotoxicity”.

For `CCn1cc(C(=O)O)c(=O)c2c3c(ccc21)NC(=O)/C3=C1/C(=O)Nc2ccc(Br)cc21` [3d, (E)-1-(5'-Bromo-2'-oxoindolin-3'-ylidene)-6-ethyl-2,3,6,9-tetrahydro-2,9-dioxo-1H-pyrrolo[3,2-f]quinoline-8-carboxylic acid], the IC50 in the data set with THP-1 cells was found to be 9.1 ± 1 µM; with Caco-2 cells, 19 ± 1.37 µM; with HEK-293 cells, 52.5 ± 4.7 µM; in the data set on K562 cells (K562, 24 h incubation) it was 19.1 ± 1.8 µM; with K562 cells (K562, 48 h incubation), 8.66 ± 0.81 µM; in the data set with K562 cells (K562, 72 h incubation), 6.92 ± 0.84 µM. In addition, the IC50 was 15.7 ± 1.94 µM with MCF-7 cells, 13.9 ± 2.01 µM with HepG2 cells and 71.9 ± 5.22 µM in the data set on L-929 cells. Moreover, the “cytotoxicity / antiproliferative activity to K562 cells (in words)” value in the data set on K562 cells is “significant dose-dependent cytotoxicity”.

In the case of `CCn1cc(C(=O)O)c(=O)c2c3c(ccc21)NC(=O)/C3=C1/C(=O)Nc2cc(Br)ccc21` [3e, (E)-1-(6'-Bromo-2'-oxoindolin-3'-ylidene)-6-ethyl-2,3,6,9-tetrahydro-2,9-dioxo-1H-pyrrolo[3,2-f]quinoline-8-carboxylic acid], the melting point was more than 300 °C. Moreover, the “cytotoxicity / antiproliferative activity to K562 cells (in words)” value in the data set on K562 cells is “significantly abolished the cytotoxicity”.

In turn, `CCn1cc(C(=O)O)c(=O)c2c3c(ccc21)NC(=O)/C3=C1/C(=O)Nc2ccc([N+](=O)[O-])cc21` [3f, (E)-6-Ethyl-1-(5'-nitro-2'-oxoindolin-3'-ylidene)-2,9-dioxo-2,3,6,9-tetrahydro-1H-pyrrolo[3,2-f]quinoline-8-carboxylic acid] had a melting point of more than 300 °C. In the data set on K562 cells, the “cytotoxicity / antiproliferative activity to K562 cells (in words)” value is “significantly inhibited their antiproliferative activities”.

`CC(=O)OC1COC(N2C(=O)C(=C3C(=O)Nc4ccccc43)c3ccccc32)C(OC(C)=O)C1OC(C)=O` [Natura^TM, 1-(β-D-triacetylxylopyranosyl) isoindigo]: the “solubility in water (in words)” value in data set [1] was “almost completely insoluble in water”.
